According to US7851484B2, “Certain chemical entities, compositions, and methods” (Cytokinetics, Inc., priority 2007, dated 2010):

Test system: SKM MF
Assay: SKM MF AC1.4: ATPase screen of skeletal sarcomeric proteins with PK/LDH coupled enzyme system
Type: biochemical
Set-up: AC1.4 Median: unit not given here
Details: not given
Method: For example, test compounds can be assayed in a highly parallel fashion by using multiwell plates by placing the compounds either individually in wells or testing them in mixtures. Assay components including the target protein complex, coupling enzymes and substrates, and ATP can then be added to the wells and the absorbance or fluorescence of each well of the plate can be measured with a plate reader.
In some embodiments, the method uses a 384 well plate format and a 25 μL reaction volume. A pyruvate kinase/lactate dehydrogenase coupled enzyme system (Huang T G and Hackney D D. (1994) J Biol Chem 269(23):16493-501) can be used to measure the rate of ATP hydrolysis in each well. As will be appreciated by those in the art, the assay components are added in buffers and reagents. The incubation periods can be optimized to give adequate detection signals over the background. The assay can be done in real time giving the kinetics of ATP hydrolysis which increases the signal to noise ratio of the assay.
Just prior to screening, the actin, tropomyosin, and troponin complex are mixed together in the desired ratio (e.g., 7:1:1) to achieve maximal calcium regulation of the actin filament. The screen is conducted at a pCa=6.5. This calcium concentration is in the physiological range during muscle contraction.
To measure the generation of ADP during the reaction, a pyruvate kinase/lactate dehydrogenase/NADH coupled enzyme system (PK/LDH) is added to the actin. The myosin is kept separately. The plates are read in real time so that kinetic curves are obtained. These compounds are in DMSO and were already spotted onto the bottoms of 384 well plates at 10 to 40 μg/ml final concentration.

| SKM MF AC1.4 [µM] | Molecule |
| --- | --- |
| 19.2 | CCC(CC)n1c(=O)[nH]c2ncccc21 [1-(pentan-3-yl)-1H-imidazo[4,5-b]pyridin-2(3H)-one] |
| 0.9 | CCC(CC)n1c(O)nc2ncc(Br)cc21 [6-bromo-1-(pentan-3-yl)-1H-imidazo[4,5-b]pyridin-2-ol] |

Same assay, conditions: median

| AC1.4 Median | Molecule |
| --- | --- |
| 28.0697 | CC(n1c(O)nc2ncc(Cl)cc21)C(C)(C)C (centres unmarked) [6-chloro-1-(1,2,2-trimethylpropyl)imidazo[4,5-b]pyridin-2-ol] |
| 8.4752 | CCC(CO)n1c(O)nc2ncc(Cl)cc21 (centres unmarked) [6-chloro-1-(1-ethyl-2-hydroxyethyl)imidazo[4,5-b]pyridin-2-ol] |
| 8.0408 | Oc1nc2ncc(Cl)cc2n1CCCC(F)(F)F [6-chloro-1-[(trifluoromethyl)propyl]imidazo[4,5-b]pyridin-2-ol] |
| 41.9678 | CCc1cnc2nc(O)n(C(CC)CC)c2c1 [6-ethyl-1-(pentan-3-yl)-1H-imidazo[4,5-b]pyridin-2-ol] |
| 1.1739 | CCC(CC)n1c(O)nc2ncc(Br)cc21 [6-bromo-1-(pentan-3-yl)-1H-imidazo[4,5-b]pyridin-2-ol] |
| 3.7477 | CCCC(CCC)n1c(O)nc2ncc(Cl)cc21 [6-chloro-1-(propylbutyl)imidazo[4,5-b]pyridin-2-ol] |
| 3.9463 | CCC(CC)n1c(O)nc2ncc(Cl)c(C)c21 [6-chloro-1-(ethylpropyl)-7-methylimidazo[4,5-b]pyridin-2-ol] |
| 2.6422 | CCC(CC(C)C)n1c(O)nc2ncc(Cl)cc21 (centres unmarked) [6-chloro-1-(1-ethyl-3-methylbutyl)imidazo[4,5-b]pyridin-2-ol] |
| 1.8005 | C=C(C)c1c(Cl)cnc2nc(O)n(C(CC)CC)c12 [6-chloro-1-(ethylpropyl)-7-(1-methylvinyl)imidazo[4,5-b]pyridin-2-ol] |
| 28.2335 | tert-butyl 4-[6-chloro-1-(ethylpropyl)-2-hydroxyimidazo[4,5-b]pyridin-7-yl]-4-hydroxypiperidinecarboxylate |
| 23.0211 | C=CCn1c(O)nc2ncc(Cl)c(I)c21 [6-chloro-7-iodo-1-prop-2-enylimidazo[4,5-b]pyridin-2-ol] |
| 11.0001 | CCC(CC)(Cn1c(O)nc2ncc(Cl)cc21)c1ccccc1 [6-chloro-1-(2-ethyl-2-phenylbutyl)imidazo[4,5-b]pyridin-2-ol] |
| 11.7273 | CCOC(=O)CSSCc1c(Cl)cnc2nc(O)n(C(CC)CC)c12 [ethyl 2-({[6-chloro-1-(ethylpropyl)-2-hydroxyimidazo[4,5-b]pyridin-7-yl]methyl}disulfanyl)acetate] |
| 1.1778 | CCC(CC)n1c(O)nc2ncc(Cl)c(I)c21 [6-chloro-1-(ethylpropyl)-7-iodoimidazo[4,5-b]pyridin-2-ol] |
| 8.3875 | COC(=O)N1CCN(C[C@@H](CC(C)C)n2c(O)nc3cc(Cl)cnc32)CC1 [methyl 4-[(2R)-2-(6-chloro-2-hydroxyimidazo[4,5-b]pyridinyl)-4-methylpentyl]piperazinecarboxylate] |
| 22.4532 | CC(Cn1c(O)nc2ncc(Cl)cc21)c1ccccc1 (centres unmarked) [6-chloro-1-(2-phenylpropyl)imidazo[4,5-b]pyridin-2-ol] |
| 1.0215 | CCC(CC)n1c(O)nc2ncc(Cl)c(C#N)c21 [6-chloro-1-(ethylpropyl)-2-hydroxyimidazo[4,5-b]pyridine-7-carbonitrile] |
| 18.2493 | methyl 4-[(2R)-2-(6-chloro-2-hydroxyimidazo[4,5-b]pyridinyl)butyl]piperazinecarboxylate |
| 10.7918 | CCC(C(C)C)n1c(O)nc2ncc(Cl)cc21 (centres unmarked) [6-chloro-1-(1-ethyl-2-methylpropyl)imidazo[4,5-b]pyridin-2-ol] |
| 1.7026 | COC(=O)c1c(Cl)cnc2nc(O)[nH]c12 [methyl 6-chloro-2-hydroxyimidazo[4,5-b]pyridine-7-carboxylate] |

Further lines, the molecule ahead of its results:

| Molecule | AC1.4 Median |
| --- | --- |
| 1-(ethylpropyl)imidazo[4,5-b]pyridine-2,6-diol | 7.8719 |
| 6-chloro-1-(ethylpropyl)-7-(hydroxyethyl)imidazo[4,5-b]pyridin-2-ol | 30.7467 |
| CCC(CC)n1c(=O)[nH]c2ncccc21 [1-(pentan-3-yl)-1H-imidazo[4,5-b]pyridin-2(3H)-one] | 19.1998 |
| C[C@@H](c1ccccc1)n1c(O)nc2ncc(Cl)cc21 [1-((1S)-1-phenylethyl)-6-chloroimidazo[4,5-b]pyridin-2-ol] | 31.7670 |
| CCC(CC)n1c(O)nc2ncc(Cl)c(/C=N\OCC(C)C)c21 [7-[(1Z)-2-(2-methylpropoxy)-2-azavinyl]-6-chloro-1-(ethylpropyl)imidazo[4,5-b]pyridin-2-ol] | 22.4644 |
| CC[C@@H](CCO)n1c(O)nc2ncc(Cl)c(I)c21 [1-((1S)-1-ethyl-3-hydroxypropyl)-6-chloro-7-iodoimidazo[4,5-b]pyridin-2-ol] | 37.2312 |
| CCC(CC)n1c(O)nc2ncc(SC)cc21 [6-(methylthio)-1-(pentan-3-yl)-1H-imidazo[4,5-b]pyridin-2-ol] | 13.7960 |
| CC[C@@H](c1ccccc1)n1c(O)nc2ncc(Cl)cc21 [1-((1S)-1-phenylpropyl)-6-chloroimidazo[4,5-b]pyridin-2-ol] | 6.3763 |
| C[C@H](c1ccccc1)n1c(O)nc2ncc(Cl)cc21 [1-((1R)-1-phenylethyl)-6-chloroimidazo[4,5-b]pyridin-2-ol] | 35.2255 |
| CC[C@H](CN1CCOCC1)n1c(O)nc2ncc(Cl)cc21 [1-[(1R)-1-(morpholin-4-ylmethyl)propyl]-6-chloroimidazo[4,5-b]pyridin-2-ol] | 15.2631 |
| CCC(CC)n1c(O)nc2ncc(Cl)c(/C=N\OCc3ccccc3)c21 [7-[(1Z)-2-(phenylmethoxy)-2-azavinyl]-6-chloro-1-(ethylpropyl)imidazo[4,5-b]pyridin-2-ol] | 42.0392 |
| 1-(ethylpropyl)-6-methoxyimidazo[4,5-b]pyridin-2-ol | 24.0256 |
| 6-chloro-1-(methylethyl)imidazo[4,5-b]pyridin-2-ol | 25.8589 |
| 6-bromo-1-(ethylpropyl)-7-methylimidazo[4,5-b]pyridin-2-ol | 2.2135 |
| 1-(ethylpropyl)-6-ethynyl-2-hydroxyimidazo[4,5-b]pyridine-7-carbonitrile | 0.1028 |
| 1-(ethylpropyl)-6-ethynyl-7-methylimidazo[4,5-b]pyridin-2-ol | 2.0265 |

| Molecule | AC1.4 Median |
| --- | --- |
| C=Cc1cnc2nc(O)n(C(CC)CC)c2c1 [1-(pentan-3-yl)-6-vinyl-1H-imidazo[4,5-b]pyridin-2-ol] | 3.0420 |
| CCC(CC)n1c(O)nc2ncc(C(F)(F)F)cc21 [1-(ethylpropyl)-6-(trifluoromethyl)imidazo[4,5-b]pyridin-2-ol] | 47.6668 |
| CCC(CC)n1c(O)nc2nc(Cl)c(Cl)cc21 [5,6-dichloro-1-(ethylpropyl)imidazo[4,5-b]pyridin-2-ol] | 8.6854 |
| CCC(CC)n1c(O)nc2ncc(Cl)c(/C=N/OC(C)(C)C)c21 [7-[(1E)-2-(tert-butoxy)-2-azavinyl]-6-chloro-1-(ethylpropyl)imidazo[4,5-b]pyridin-2-ol] | 1.8945 |
| methyl 1-(ethylpropyl)-2-hydroxyimidazo[4,5-b]pyridine-7-carboxylate | 17.1735 |
| 1-(ethylpropyl)-6-(3-thienyl)imidazo[4,5-b]pyridin-2-ol | 22.3369 |
| CCC(CC)n1c(O)nc2ncc(Cl)c(C3=CCN(C(=O)OC(C)(C)C)CC3)c21 [tert-butyl 4-[6-chloro-1-(ethylpropyl)-2-hydroxyimidazo[4,5-b]pyridin-7-yl]-1,2,5,6-tetrahydropyridinecarboxylate] | 26.7443 |
| 1-(ethylpropyl)-6-(2-methylprop-1-enyl)imidazo[4,5-b]pyridin-2-ol | 35.3882 |
| CC(C)(C)C(CO)n1c(O)nc2ncc(Cl)cc21 (centres unmarked) [1-[1-(tert-butyl)-2-hydroxyethyl]-6-chloroimidazo[4,5-b]pyridin-2-ol] | 48.1977 |
| CC[C@@H](C)n1c(O)nc2ncc(Cl)cc21 [1-((1R)-1-methylpropyl)-6-chloroimidazo[4,5-b]pyridin-2-ol] | 10.6839 |
| CC(C)CC(C)n1c(O)nc2ncc(Cl)cc21 (centres unmarked) [1-(1,3-dimethylbutyl)-6-chloroimidazo[4,5-b]pyridin-2-ol] | 5.7765 |
| 6-chloro-1-(ethylpropyl)-7-(hydroxymethyl)imidazo[4,5-b]pyridin-2-ol | 42.6538 |
| CC(C)C[C@H](CN1CCOCC1)n1c(O)nc2ncc(Cl)cc21 [1-[(1R)-3-methyl-1-(morpholin-4-ylmethyl)butyl]-6-chloroimidazo[4,5-b]pyridin-2-ol] | 5.0392 |
| Oc1nc2ncc(Cl)cc2n1[C@H](Cc1ccccc1)CN1CCOCC1 [1-[(1R)-2-morpholin-4-yl-1-benzylethyl]-6-chloroimidazo[4,5-b]pyridin-2-ol] | 8.8149 |
| CCC(CC)n1c(O)nc2nc(Br)c(Br)cc21 [5,6-dibromo-1-(ethylpropyl)imidazo[4,5-b]pyridin-2-ol] | 9.8768 |

Same assay, conditions: median value (footnote †)

| SKM MF AC1.4 (μM) | Molecule |
| --- | --- |
| 41.9678^† μM | CCc1cnc2nc(O)n(C(CC)CC)c2c1 [6-ethyl-1-(pentan-3-yl)-1H-imidazo[4,5-b]pyridin-2-ol] |
| 13.796^† μM | CCC(CC)n1c(O)nc2ncc(SC)cc21 [6-(methylthio)-1-(pentan-3-yl)-1H-imidazo[4,5-b]pyridin-2-ol] |
| 3.042^† μM | C=Cc1cnc2nc(O)n(C(CC)CC)c2c1 [1-(pentan-3-yl)-6-vinyl-1H-imidazo[4,5-b]pyridin-2-ol] |
